Measurements from patent US7521538B2, “Crystal structure of the ternary complex of 14-3-3/Fusicoccin/PMA and methods for designing new herbicides” (Max-Planck-Gesellschaft zur Foerderung der Wissenschaften …, priority 2003, dated 2009).
Where a chain is given by its changes, count along the chain named. Like-named read-outs stand apart in the source and are kept apart here. Non-standard residues stand in square brackets, D forms with d. Residues, ends and D or L forms follow the SMILES beside them. pT = C[C@@H](OP(=O)(O)O)[C@H](N)C(=O)O

Experiments:
[1] = target: T1, 14-3-3 (Nicotiana tabacum, UniProt P93343); assay: Binding of non-phosphorylated peptide to 14-3-3 (not shown, method not stated)
T1 sequence (P93343 1-260): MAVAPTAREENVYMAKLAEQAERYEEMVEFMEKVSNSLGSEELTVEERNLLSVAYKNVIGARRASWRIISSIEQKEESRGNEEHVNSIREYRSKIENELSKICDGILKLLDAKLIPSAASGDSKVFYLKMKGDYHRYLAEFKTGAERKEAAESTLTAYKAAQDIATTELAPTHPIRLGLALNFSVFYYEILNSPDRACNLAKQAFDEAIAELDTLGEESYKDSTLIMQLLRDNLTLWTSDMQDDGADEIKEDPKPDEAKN
Excerpt: The phosphopeptide occupies the central binding groove of 14-3-3c in an extended conformation. The phosphate moiety of the phosphothreonine forms electrostatic interactions with a positively charged patch formed by residues Lys56, Arg63, and Arg136 and a H-bond to Tyr137 (FIG. 1b). […] Additionally, there are a number of H-bonds (cut-off limit 3.4 Å) between the peptide, mostly from the main-chain, and conserved protein side-chains. The peptide's C-terminal barboxylate is mostly contacted by basic residues and the side chains of the Val and Tyr residue flanking the phosphothreonine form van der Waals contacts to the protein (FIG. 1b). The structure confirms the notion that the C-terminal YTV-motif is highly conserved in plant P-type H^+-ATPases.

[2] = target: T2, 14-3-3-fusicoccin complex (Nicotiana tabacum, UniProt P93343); assay: Isothermal titration calorimetry, peptide binding to FC/14-3-3c complex; settings: for increase of the binding affinity of the peptide by fusicoccin: complete binding cycle, ITC
T2 construct: Tobacco 14-3-3c (Gene bank AAC49892, amino acids 1-260 with an N-terminal His-tag); His-tag (N); made in house; host or cells: E. coli
T2 sequence (P93343 1-260): T1 sequence (P93343 1-260)
Method: (§1) In order to obtain more quantitative data with respect to the phosphorylated pentapeptide used in the structural analysis, thermodynamic constants were determined by means of isothermal titration calorimetry (ITC, 16).
(§2) Binding of ligands to 14-3-3c was measured with a MCS isothermal titration calorimeter (MicroCal Inc., Northampton). Ligands (fusicoccin 0.4 mM; phosphopbeptides 0.5 mM) were titrated in 8 to 20 μl steps by injection into solutions containing 14-3-3c (0.05 mM) alone or 14-3-3c saturated with one of the ligands in 25 mM HEPES buffer pH 6.5, 10 mM MgCl2, 5 mM CaCl2, 5 mM DTE at 35° C. Binding isotherms were fitted using a single binding site model and used to calculate the binding enthalpy (ΔH) and association constant (Ka) of the binding reaction. Dissociation constants (KD=1/Ka), Gibbs free energy changes (ΔG=−RTInKa) and entropy changes (TΔS=ΔH−ΔG) were calculated from ΔH and Ka. For the binding of peptide to a FC/14-3-3c complex, we also used non-saturating conditions of FC and observed two binding events which were fitted independently to K1 and K4. All measurements were repeated at least three times.

[3] = target: T3, 14-3-3c (Nicotiana tabacum, UniProt P93343); assay: Isothermal titration calorimetry, ligand binding to 14-3-3c alone; settings: for binding of the toxin by itself to 14-3-3: unliganded 14-3-3, no peptide
T3 construct: Tobacco 14-3-3c (Gene bank AAC49892, amino acids 1-260 with an N-terminal His-tag); His-tag (N); made in house; host or cells: E. coli
T3 sequence (P93343 1-260): T1 sequence (P93343 1-260)
Method: as §1, §2

[4] = target: T4, 14-3-3z N49Q / PMA-GST fusion construct (Homo sapiens, UniProt P63104, N42Q); assay: Far-western-blot overlay, 14-3-3 N49Q; type: binding; settings: mutation N49Q
T4 construct: made in house
T4 sequence (P63104 1-245 N42Q): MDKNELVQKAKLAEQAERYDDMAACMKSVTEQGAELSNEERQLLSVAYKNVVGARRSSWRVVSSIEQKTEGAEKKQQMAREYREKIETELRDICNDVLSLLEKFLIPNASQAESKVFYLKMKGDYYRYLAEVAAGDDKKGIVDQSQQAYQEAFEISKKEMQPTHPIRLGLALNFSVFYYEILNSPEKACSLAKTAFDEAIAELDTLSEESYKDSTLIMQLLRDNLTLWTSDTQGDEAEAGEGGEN
Method: (§3) In order to study the functional relevance of selected amino acids within the above-described binding pocket, residues the following point mutants were analysed in respect FC binding: (a) N49Q, (b) D222E, (c) F126E and (d) I175E in the homologous sequence of human 14-3-3z. The mutant proteins were expressed, purified and FC binding were tested in an in vitro assay in the presence of the 66 C-terminal residues of a PMA-GST fusion construct.
(§4) For the detection of FC binding a far-western-blot (FIG. 4) was performed. In this in vitro assay, the PMA-GST fusion construct, containing the 66 C-terminal residues of PMA, was immobilised on a nitrocellulose membrane via electroblotting of SDS-PAGE-separated proteins. The interacting protein, a his-tagged 14-3-3 construct was allowed to react with the GST-fusion protein in an overlay-solution. The interaction of these two proteins was mediated by fusicoccin. […] The actual binding of the his-tagged 14-3-3 protein was visualized after washing the membrane by immunodetecton with an anti-His-antibody, which was employed as primary antibody.

[5] = target: T5, 14-3-3z F126E / GST-PMA2-CT66 (Homo sapiens, UniProt P63104, F117E); assay: GST-pulldown, 14-3-3 F126E; type: binding; settings: pull-down, mutation F126E
T5 construct: made in house
T5 sequence (P63104 1-245 F117E): T4 sequence (P63104 1-245 N42Q) with Q42N, F117E
Method: as §3
(§5) Alternatively, a second in-vitro method was used to screen for fusicoccin binding. In this pull-down assay (FIG. 5), the GST-PMA fusion protein is immobilized on GSH-sepharose-beads and the his-tagged 14-3-3 protein will bind in the presence of fusioccin to the GST-fusion protein and can subsequently be found in the sepharose-fraction after washing and centrifugation of the beads. The detection again takes place via SDS-PAGE and Western-Blotting with subsequent immunodetection.

[6] = target: T6, 14-3-3z D222E / PMA-GST fusion construct (Homo sapiens, UniProt P63104, D213E); assay: Far-western-blot overlay, 14-3-3 D222E; type: binding; settings: mutation D222E
T6 construct: made in house
T6 sequence (P63104 1-245 D213E): T4 sequence (P63104 1-245 N42Q) with Q42N, D213E
Method: as §3, §4

[7] = Solubility of FC in aqueous solutions; type: physicochemical
[8] = target: T7, 14-3-3c with phosphopeptide after removal of Val (Nicotiana tabacum, UniProt P93343); assay: ITC, FC binding to 14-3-3c with phosphopeptide lacking the C-terminal Val; settings: peptide with C-terminal Val deleted, FIG. 3b lower panel
T7 construct: Tobacco 14-3-3c (Gene bank AAC49892, amino acids 1-260 with an N-terminal His-tag); His-tag (N); made in house; host or cells: E. coli (14-3-3c); the phosphopeptide was synthesized by Biosyntan (Berlin)
Method: as §2
(§6) PMA binding to-14-3-3 is unique in that the penultimate C-terminal residue is the phosphorylated threonine (YpTV-COOH). […] Taken together; this explains why there is no effect of FC on any other known 14-3-3-ligand interaction. To date, all plant proteins characterized as interacting directly with 14-3-3 homologs contain the consensus binding motifs with the notable exception of the plasma membrane H^+-ATPase. […]

[9] = target: T8, 14-3-3c preloaded with Gln-Ser-Tyr-pThr-Val-Pro (Nicotiana tabacum, UniProt P93343); assay: ITC, FC binding to 14-3-3c preloaded with C-terminally extended phosphopeptide; settings: peptide with added C-terminal Pro, FIG. 3b upper panel
T8 construct: Tobacco 14-3-3c (Gene bank AAC49892, amino acids 1-260 with an N-terminal His-tag); His-tag (N); made in house; host or cells: E. coli (14-3-3c); the phosphopeptide was synthesized by Biosyntan (Berlin)
T8 sequence (P93343 1-260): T1 sequence (P93343 1-260)
Method: as §2, §6

[10] = target: T9, 14-3-3z I175E / GST-PMA2-CT66 (Homo sapiens, UniProt P63104, I166E); assay: GST-pulldown, 14-3-3 I175E; type: binding; settings: pull-down, mutation I175E
T9 construct: made in house
T9 sequence (P63104 1-245 I166E): T4 sequence (P63104 1-245 N42Q) with Q42N, I166E
Method: as §3, §5

[11] = target: T10, 14-3-3z N49Q / GST-PMA2-CT66 (Homo sapiens, UniProt P63104, N42Q); assay: GST-pulldown, 14-3-3 N49Q; type: binding; settings: pull-down, mutation N49Q
T10 construct: made in house
T10 sequence (P63104 1-245 N42Q): T4 sequence (P63104 1-245 N42Q)
Method: as §3, §5

[12] = target: T11, 14-3-3z D222E / GST-PMA2-CT66 (Homo sapiens, UniProt P63104, D213E); assay: GST-pulldown, 14-3-3 D222E; type: binding; settings: pull-down, mutation D222E
T11 construct: made in house
T11 sequence (P63104 1-245 D213E): T4 sequence (P63104 1-245 N42Q) with Q42N, D213E
Method: as §3, §5

[13] = target: T12, binary 14-3-3/peptide complex (Nicotiana tabacum, UniProt P93343); assay: Isothermal titration calorimetry, FC titrated to 14-3-3c saturated with peptide; type: binding; settings: ITC, 35° C., pH 6.5
T12 construct: Tobacco 14-3-3c (Gene bank AAC49892, amino acids 1-260 with an N-terminal His-tag); His-tag (N); made in house; host or cells: E. coli (14-3-3c); the phosphopeptide was synthesized by Biosyntan (Berlin)
T12 sequence (P93343 1-260): T1 sequence (P93343 1-260)
Method: as §1, §2

[14] = target: T13, 14-3-3z I175E / PMA-GST fusion construct (Homo sapiens, UniProt P63104, I166E); assay: Far-western-blot overlay, 14-3-3 I175E; type: binding; settings: mutation I175E
T13 construct: made in house
T13 sequence (P63104 1-245 I166E): T4 sequence (P63104 1-245 N42Q) with Q42N, I166E
Method: as §3, §4

[15] = target: T14, wild type 14-3-3 / PMA-GST fusion construct (66 C-terminal residues of PMA) (Homo sapiens, UniProt P63104); assay: Far-western-blot overlay, wild type 14-3-3; type: binding; settings: 0, 500 nM and 1000 nM fusicoccin
T14 construct: made in house
T14 sequence (P63104 1-245): T4 sequence (P63104 1-245 N42Q) with Q42N
Method: as §3, §4

[16] = target: T15, 14-3-3z F126E / PMA-GST fusion construct (Homo sapiens, UniProt P63104, F117E); assay: Far-western-blot overlay, 14-3-3 F126E; type: binding; settings: mutation F126E
T15 construct: made in house
T15 sequence (P63104 1-245 F117E): T4 sequence (P63104 1-245 N42Q) with Q42N, F117E
Method: as §3, §4

Gln-Ser-Tyr-Thr-Val (QSYTV; printed: Gln-Ser-Tyr-Thr-Val) [non-phosphorylated version of the PMA2 C-terminal pentapeptide]
binding to 14-3-3 [1]: binding could not be detected

CC(C)[C@H](NC(=O)[C@@H](NC(=O)[C@H](Cc1ccc(O)cc1)NC(=O)[C@H](CO)NC(=O)[C@@H](N)CCC(N)=O)[C@@H](C)OP(=O)(O)O)C(=O)O [peptide, Gln-Ser-Tyr-pThr-Val] (H-QSY[pT]V-OH; N-terminus assumed)
enthalpy (ΔH) of peptide binding ([2]; 14-3-3-FC complex): -11.8 kcal/mol | −TAS of peptide binding ([2]; 14-3-3-FC complex): 0.4 kcal/mol | binding between 14-3-3 and the peptide ([2]; after saturation of the binding site with FC, FIG. 3A): much tighter | Kd [3]: 2.5 µM | enthalpy (ΔH) of peptide binding ([3]; unliganded 14-3-3): -10 kcal/mol | −TAS of peptide binding ([3]; unliganded 14-3-3): 1.7 kcal/mol

C=CC(C)(C)OC[C@H]1O[C@H](O[C@@H]2C3=C([C@H](C)COC(C)=O)C[C@H](O)[C@]3(C)/C=C3/[C@@H](COC)CC[C@H]3[C@@H](C)[C@H]2O)[C@H](O)[C@@H](OC(C)=O)[C@@H]1O [Fusicoccin]
fusicoccin mediated PMA binding [4]: strong reduction | fusicoccin mediated PMA binding [5]: complete inhibition of binding | fusicoccin mediated PMA binding [6]: strong reduction | solubility in aqueous solutions [7]: insolubility | FC binding [8]: drastically weakens the binding | FC binding ([8]; listed as FC): significant lower binding affinity | FC binding [9]: drastically weakens the binding | FC binding ([9]; listed as FC): severely impaired | increase of the binding affinity of the peptide by fusicoccin [2]: 93 fold | increase of the binding affinity of the peptide by fusicoccin ([2]; listed as toxin): more than 90 fold | fusicoccin mediated PMA binding [10]: complete inhibition of binding | fusicoccin mediated PMA binding [11]: strong reduction | fusicoccin mediated PMA binding [12]: strong reduction | Kd [13]: 0.7 µM | fusicoccin mediated PMA binding [14]: complete inhibition of binding | Kd ([3]; calculated from K4 and K1×K2=K3×K4, read-out: affinity of FC to 14-3-3, more reliable value): 66 µM | Kd ([3]; direct ITC determination, somewhat unreliable, read-out: affinity of FC to 14-3-3): ~50 µM | binding of the toxin by itself to 14-3-3 ([3]; listed as FC): weak binding | binding of the toxin by itself to 14-3-3 ([3]; listed as toxin): binds only weakly | fusicoccin mediated interaction of 14-3-3 with PMA-GST [15]: interaction was only observed in the presence of fusicoccin | fusicoccin mediated PMA binding [16]: complete inhibition of binding
